{"source": "PubChem BioAssay AID200", "about": "(DTP/NCI, 2004)", "tested_on": "B6C3F1 mice, B16 melanoma ip, median survival T/C", "assay": "NCI In Vivo Anticancer Drug Screen. Data for tumor model B16 Melanoma (intraperitoneal) in B6C3F1 mice", "settings": "endpoint: median survival time, higher = longer survival", "in_short": "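Tumor-bearing mice received test compound; a separate group got vehicle only. Survival was then compared, with results reported as treated over control.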", "note": "Several values for one entry are separate records, joined by “and”; a condition that tells them apart may be missing. Equal values may be shown once. Toxic doses and inconclusive results are not listed. *1 amine or outer side, *2 acyl side, *3 side chain or, on linkers, in order; H or OH if unused. Where a SMILES comes first, the peptide text is derived from it. Bridges are numbered along the chain shown (N, C = ends). Roman numbers before positions name the chains, in order. [ ]: non-standard residue; d: D form. Actinocin(1to9) = Cc1c2oc3c(C)ccc(C(=O)[*:2])c3nc-2c(C(=O)[*:1])c(N)c1=O; X1 = COC(=O)CCN(CC(=O)[*:2])[*:1]; NMeA = CN[CH](C)C(=O)O"}
{"smiles": "CC1=C(CCC(=O)O)c2cc3nc(cc4[nH]c(cc5[nH]c(cc1n2)c(C)c5C(C)O)c(C)c4C(C)O)C(C)=C3CCC(=O)O", "note": "(stereo not drawn)", "values": [{"measurement": "T/C", "setting": "dose: 3.13 mg/kg/injection, schedule: Q01DX009 (ip), vehicle: Klucel (hydroxypropylcellulose) (HPC)", "result": "111 % of control"}, {"measurement": "T/C", "setting": "dose: 6.25 mg/kg/injection, schedule: Q01DX009 (ip), vehicle: Klucel (hydroxypropylcellulose) (HPC)", "result": "115 % of control"}, {"measurement": "T/C", "setting": "dose: 12.5 mg/kg/injection, schedule: Q01DX009 (ip), vehicle: Klucel (hydroxypropylcellulose) (HPC)", "result": "107 % of control"}, {"measurement": "T/C", "setting": "dose: 25.0 mg/kg/injection, schedule: Q01DX009 (ip), vehicle: Klucel (hydroxypropylcellulose) (HPC)", "result": "104 % of control"}]}
{"smiles": "CC1(C)CC23C4COC(=O)C2CCC1C3CC4=O", "note": "(stereo not drawn)", "values": [{"measurement": "T/C", "setting": "dose: 6.25 mg/kg/injection, schedule: Q01DX009 (ip), vehicle: DMSO", "result": "89 % of control"}, {"measurement": "T/C", "setting": "dose: 12.5 mg/kg/injection, schedule: Q01DX009 (ip), vehicle: DMSO", "result": "90 % of control"}, {"measurement": "T/C", "setting": "dose: 25.0 mg/kg/injection, schedule: Q01DX009 (ip), vehicle: DMSO", "result": "97 % of control"}, {"measurement": "T/C", "setting": "dose: 50.0 mg/kg/injection, schedule: Q01DX009 (ip), vehicle: DMSO", "result": "99 % of control"}, {"measurement": "T/C", "setting": "dose: 100.0 mg/kg/injection, schedule: Q01DX009 (ip), vehicle: DMSO", "result": "88 % of control"}, {"measurement": "T/C", "setting": "dose: 200.0 mg/kg/injection, schedule: Q01DX009 (ip), vehicle: DMSO", "result": "96 % of control"}]}
{"smiles": "CCCCS(=N)(=O)CC[C@H](N)C(=O)O", "note": "(stereo partly drawn)", "values": [{"measurement": "T/C", "setting": "dose: 445.0 mg/kg/injection, schedule: Q04HX012 (ip), vehicle: water", "result": "104 % of control"}, {"measurement": "T/C", "setting": "dose: 890.0 mg/kg/injection, schedule: Q04HX012 (ip), vehicle: water", "result": "107 % of control"}]}
{"smiles": "CCC(NC(N)=O)C(CC)NC(N)=O", "note": "(stereo not drawn)", "values": [{"measurement": "T/C", "setting": "dose: 12.5 mg/kg/injection, schedule: Q01DX009 (ip), vehicle: saline with Tween-80", "result": "99 % of control"}, {"measurement": "T/C", "setting": "dose: 25.0 mg/kg/injection, schedule: Q01DX009 (ip), vehicle: saline with Tween-80", "result": "96 % of control"}, {"measurement": "T/C", "setting": "dose: 50.0 mg/kg/injection, schedule: Q01DX009 (ip), vehicle: saline with Tween-80", "result": "89 % of control"}]}
{"smiles": "CC[C@@]1(O)C[C@H](OC2CC(N(C)C)C(OC3CC(O)C(OC4CCC(=O)C(C)O4)C(C)O3)C(C)O2)c2c(cc3c(c2O)C(=O)c2c(O)cccc2C3=O)[C@H]1C(=O)OC", "note": "(stereo partly drawn)", "values": [{"measurement": "T/C", "setting": "dose: 3.0 mg/kg/injection, schedule: Q01DX009 (ip), vehicle: saline with Tween-80", "result": "151 % of control"}]}
{"smiles": "C[n+]1c(/C=C\\C=C\\N2CCCCC2)sc2ccccc21", "values": [{"measurement": "T/C", "setting": "dose: 0.12 mg/kg/injection, schedule: Q01DX009 (ip), vehicle: Klucel (hydroxypropylcellulose) (HPC)", "result": "107 % of control"}, {"measurement": "T/C", "setting": "dose: 0.25 mg/kg/injection, schedule: Q01DX009 (ip), vehicle: Klucel (hydroxypropylcellulose) (HPC)", "result": "95 % of control"}, {"measurement": "T/C", "setting": "dose: 0.5 mg/kg/injection, schedule: Q01DX009 (ip), vehicle: Klucel (hydroxypropylcellulose) (HPC)", "result": "90 % of control"}, {"measurement": "T/C", "setting": "dose: 1.0 mg/kg/injection, schedule: Q01DX009 (ip), vehicle: Klucel (hydroxypropylcellulose) (HPC)", "result": "95 % of control"}, {"measurement": "T/C", "setting": "dose: 2.0 mg/kg/injection, schedule: Q01DX009 (ip), vehicle: Klucel (hydroxypropylcellulose) (HPC)", "result": "110 % of control"}]}
{"smiles": "Cc1cc(O)c2c(c1O)C(=O)C13C(=C2O)C(=O)C2C(O)C1C1C(O)C3C(=O)C3=C(O)c4c(O)cc(C)c(O)c4C(=O)C321", "note": "(stereo not drawn)", "values": [{"measurement": "T/C", "setting": "dose: 0.19 mg/kg/injection, schedule: Q01DX009 (ip), vehicle: saline with Tween-80", "result": "109 % of control"}, {"measurement": "T/C", "setting": "dose: 0.2 mg/kg/injection, schedule: Q01DX009 (ip), vehicle: saline with Tween-80", "result": "124 % of control"}, {"measurement": "T/C", "setting": "dose: 0.39 mg/kg/injection, schedule: Q01DX009 (ip), vehicle: saline with Tween-80", "result": "114 % of control and 106 % of control"}, {"measurement": "T/C", "setting": "dose: 0.78 mg/kg/injection, schedule: Q01DX009 (ip), vehicle: saline with Tween-80", "result": "117 % of control"}, {"measurement": "T/C", "setting": "dose: 1.56 mg/kg/injection, schedule: Q01DX009 (ip), vehicle: saline with Tween-80", "result": "117 % of control"}]}
{"smiles": "N=C(N)CCCCCCCCC(=N)N", "values": [{"measurement": "T/C", "setting": "dose: 0.78 mg/kg/injection, schedule: Q01DX009 (ip), vehicle: saline", "result": "99 % of control and 102 % of control"}, {"measurement": "T/C", "setting": "dose: 1.56 mg/kg/injection, schedule: Q01DX009 (ip), vehicle: saline", "result": "108 % of control and 112 % of control"}, {"measurement": "T/C", "setting": "dose: 3.12 mg/kg/injection, schedule: Q01DX009 (ip), vehicle: saline", "result": "110 % of control"}, {"measurement": "T/C", "setting": "dose: 3.13 mg/kg/injection, schedule: Q01DX009 (ip), vehicle: saline", "result": "102 % of control"}, {"measurement": "T/C", "setting": "dose: 6.25 mg/kg/injection, schedule: Q01DX009 (ip), vehicle: saline", "result": "118 % of control and 106 % of control"}, {"measurement": "T/C", "setting": "dose: 12.5 mg/kg/injection, schedule: Q01DX009 (ip), vehicle: saline", "result": "112 % of control"}]}
{"smiles": "COC(=O)CCN1CC(=O)N(C)C(C)C(=O)OC(C)C(NC(=O)c2c3nc4c(C(=O)NC5C(=O)NC(C(C)C)C(=O)N6CCCC6C(=O)N(CCC(=O)OC)CC(=O)N(C)C(C)C(=O)OC5C)ccc(C)c4oc-3c(C)c(=O)c2N)C(=O)NC(C(C)C)C(=O)N2CCCC2C1=O", "note": "(stereo not drawn) (I: TVP[X1][NMeA] / II: TVP[X1][NMeA]; ester I:1-I:C, II:1-II:C; linker I:N-II:N via Actinocin(1to9); configuration not given here)", "values": [{"measurement": "T/C", "setting": "dose: 0.25 mg/kg/injection, schedule: Q04DX003 (ip), vehicle: saline + alcohol", "result": "109 % of control"}, {"measurement": "T/C", "setting": "dose: 0.5 mg/kg/injection, schedule: Q04DX003 (ip), vehicle: saline + alcohol", "result": "105 % of control"}, {"measurement": "T/C", "setting": "dose: 1.0 mg/kg/injection, schedule: Q04DX003 (ip), vehicle: saline + alcohol", "result": "98 % of control and 104 % of control"}, {"measurement": "T/C", "setting": "dose: 2.0 mg/kg/injection, schedule: Q04DX003 (ip), vehicle: saline + alcohol", "result": "118 % of control and 102 % of control"}, {"measurement": "T/C", "setting": "dose: 4.0 mg/kg/injection, schedule: Q04DX003 (ip), vehicle: saline + alcohol", "result": "114 % of control"}, {"measurement": "T/C", "setting": "dose: 8.0 mg/kg/injection, schedule: Q04DX003 (ip), vehicle: saline + alcohol", "result": "121 % of control"}]}
{"smiles": "COc1cc2c(c(OC)c1O)-c1ccc(OC)c(=O)cc1[C@@H](NC(=O)C(F)(F)F)CC2", "values": [{"measurement": "T/C", "setting": "dose: 0.62 mg/kg/injection, schedule: Q01DX009 (ip), vehicle: Klucel (hydroxypropylcellulose) (HPC)", "result": "119 % of control"}, {"measurement": "T/C", "setting": "dose: 0.63 mg/kg/injection, schedule: Q01DX009 (ip), vehicle: Klucel (hydroxypropylcellulose) (HPC)", "result": "122 % of control"}, {"measurement": "T/C", "setting": "dose: 1.25 mg/kg/injection, schedule: Q01DX009 (ip), vehicle: Klucel (hydroxypropylcellulose) (HPC)", "result": "118 % of control"}, {"measurement": "T/C", "setting": "dose: 2.5 mg/kg/injection, schedule: Q01DX009 (ip), vehicle: Klucel (hydroxypropylcellulose) (HPC)", "result": "120 % of control"}, {"measurement": "T/C", "setting": "dose: 4.17 mg/kg/injection, schedule: Q01DX009 (ip), vehicle: Klucel (hydroxypropylcellulose) (HPC)", "result": "156 % of control"}]}
